# Source: patent US20100028447A1, “Intranasal, Buccal, And Sublingual Administration Of Metanicotine Analogs” (TARGACEPT, INC., priority 2007, published 2010)
# Key:
# [1] = In situ brain perfusion, single time-point method
# Procedure: Animals used in this study were Sprague-Dawley rats (approximate weight 250-300 grams), obtained from Hilltop Lab Animals, Scottdale, Pa. Upon arrival, the rats were assigned randomly to treatment groups and acclimated for at least 24 hours. The animals were housed two per cage and identified by cage labels. A single room was used for this study. The animals were supplied with water and a commercial rodent diet ad libitum. On the day of the experiment, each rat was anesthetized intraperitoneally with Ketamine HCl/Xylazine HCl solution prior to being implanted with a cannula into the left carotid artery. Branch arteries were […], and the cardiac supply was cut off prior to brain perfusion.
# Perfusion was performed using the single time-point method. […] Following 30 seconds of perfusion, the pump was stopped, and the brain was removed from the skull immediately. The brain was cut longitudinally in […]. Each left cerebral hemisphere was placed into a chilled tube, frozen on dry ice, and stored frozen at −60° C. to −80° C. until analyzed. […] Test articles were perfused at concentrations of 50 μM. The outline of the experimental treatments and the target and measured concentrations of the test articles and control compounds in the perfusate are presented in Table 3.
# The left brain hemisphere from each rat was thawed and weighed. Methanol (20% aqueous) was added to each left brain hemisphere at approximately 4 mL per 1 g of brain tissue, and the mixture was homogenized using sonication with a VirSonic Ultrasonic Cell Disruptor 100 (VirTis). The test articles and two reference compounds were analyzed in the resulting homogenate by using LC/MS/MS.
# The unidirectional brain transfer constants Kin (mL/g/min) were determined for the test articles and the high permeability reference, antipyrine, using the following equation for the single-point perfusion assay: […]
# where: Cbr/Cpf is the apparent brain distribution volume (mL/g of brain tissue); Cbr is the concentration of drug in the brain tissue (pmol of drug per g of brain tissue); Cpf is the drug concentration in the perfusion fluid (pmol/mL of perfusate); and t is the net perfusion time (minutes).
# Graphic representation and statistical analyses of the data were performed using GraphPad Prism software.
# [2] = test system: cultured human respiratory epithelium; test: Permeation across cultured human respiratory epithelium (EpiAir tissue), apical-to-basolateral Papp
# Excerpt: (§1) An in vitro model of MatTek EpiAir® tissue was used for the permeability assessment of the test articles and control compounds. The EpiAir® culture consists of cells that have been cultured to form a pseudo-stratified, highly differentiated model closely resembling the epithelial tissue of the human respiratory tract. The histological cross-sections of the cultured tissue reveal a pseudo-stratified mucociliary phenotype.
# (§2) EpiAir® tissues plated in 12 well plates were pre-equilibrated for the assay by culturing them for 24 hours at 37° C. with 5% CO2 in a humidified incubator. On the day of the assay, the cultures were washed two times with Dulbeccos' Phosphate Buffered Saline (DPBS buffer) at pH 7.4, and then dosed with donor and receiver buffer applied to the apical and basolateral surfaces of the culture, respectively. The receiver buffer consisted of DPBS, at pH 7.4. The donor solution consisted of DPBS buffer containing the appropriate compounds as specified in Table 1. All treatments were performed in triplicate. The receiver buffer was sampled at 15, 30, 60, and 120 minutes, and the donor buffer was sampled at 120 minutes.
# (§3) The Lucifer Yellow concentration in the receiver samples was measured using a FluoStar fluorescence plate reader (BMG Laboratories, Durham, N.C.).
# (§4) The apparent permeability coefficient, Papp, was calculated as follows: […]
# (§5) where: dCr/dt is the slope of the cumulative concentration in the receiver compartment versus time; Vr is the volume of the receiver compartment; A is the surface area of epithelium available for permeation; and Co is the dosing solution concentration.
# [3] = as above; settings: human, pH 7.4, Papp
# Excerpt: as §1, §2, §3, §4, §5
# [4] = Table 4 Treatment 1: Compound B perfused with references, Average ± STD
# [5] = Table 4 Treatment 1: Compound B perfused with references, Rat 1
# [6] = Table 4 Treatment 1: Compound B perfused with references, Rat 2
# [7] = Table 4 Treatment 1: Compound B perfused with references, Rat 3
# [8] = Table 4 Treatment 2: Compound B perfused with references + MAO inhibitor Pargyline, Average ± STD
# [9] = Table 4 Treatment 2: Compound B perfused with references + MAO inhibitor Pargyline, Rat 1
# [10] = Table 4 Treatment 2: Compound B perfused with references + MAO inhibitor Pargyline, Rat 2
# [11] = Table 4 Treatment 2: Compound B perfused with references + MAO inhibitor Pargyline, Rat 3
# [12] = Table 5 Treatment 1: Compound A perfused with references, Average ± STD
# [13] = Table 5 Treatment 1: Compound A perfused with references, Rat 1
# [14] = Table 5 Treatment 1: Compound A perfused with references, Rat 2
# [15] = Table 5 Treatment 1: Compound A perfused with references, Rat 3
# [16] = Table 5 Treatment 2: Compound A perfused with references + CYP2D6 inhibitor Quinidine, Average ± STD
# [17] = Table 5 Treatment 2: Compound A perfused with references + CYP2D6 inhibitor Quinidine, Rat 1
# [18] = Table 5 Treatment 2: Compound A perfused with references + CYP2D6 inhibitor Quinidine, Rat 2
# [19] = Table 5 Treatment 2: Compound A perfused with references + CYP2D6 inhibitor Quinidine, Rat 3
# [20] = Treatment 3: MAO substrate Phenylethylamine assayed with controls, Average ± STD
# [21] = Treatment 3: MAO substrate Phenylethylamine assayed with controls, Rep 1
# [22] = Treatment 3: MAO substrate Phenylethylamine assayed with controls, Rep 2
# [23] = Treatment 3: MAO substrate Phenylethylamine assayed with controls, Rep 3
# [24] = Treatment 4: Phenylethylamine assayed with controls + MAO inhibitor Pargyline, Average ± STD
# [25] = Treatment 4: Phenylethylamine assayed with controls + MAO inhibitor Pargyline, Rep 1
# [26] = Treatment 4: Phenylethylamine assayed with controls + MAO inhibitor Pargyline, Rep 2
# [27] = Treatment 4: Phenylethylamine assayed with controls + MAO inhibitor Pargyline, Rep 3
compound,measurement,setting,value
"Cc1cc(=O)n(-c2ccccc2)n1C [Antipyrine, reference compound]",Brain Concentration (corrected for drug retained in vascular volume),[1]; [4],1083.1 ± 141.4 pmol/g
same,Kin,[1]; [4],0.342 ± 0.045 mL/g/min
same,Brain Concentration (corrected for drug retained in vascular volume),[1]; [5],1123.1 pmol/g
same,Kin,[1]; [5],0.355 mL/g/min
same,Brain Concentration (corrected for drug retained in vascular volume),[1]; [6],1200.2 pmol/g
same,Kin,[1]; [6],0.379 mL/g/min
same,Brain Concentration (corrected for drug retained in vascular volume),[1]; [7],926.0 pmol/g
same,Kin,[1]; [7],0.292 mL/g/min
same,Brain Concentration (corrected for drug retained in vascular volume),[1]; [8],888.5 ± 47.9 pmol/g
same,Kin,[1]; [8],0.300 ± 0.016 mL/g/min
same,Brain Concentration (corrected for drug retained in vascular volume),[1]; [9],833.1 pmol/g
same,Kin,[1]; [9],0.282 mL/g/min
same,Brain Concentration (corrected for drug retained in vascular volume),[1]; [10],914.3 pmol/g
same,Kin,[1]; [10],0.309 mL/g/min
same,Brain Concentration (corrected for drug retained in vascular volume),[1]; [11],918.0 pmol/g
same,Kin,[1]; [11],0.310 mL/g/min
same,Brain Concentration (corrected for drug retained in vascular volume),[1]; [12],1157.1 ± 239.3 pmol/g
same,Kin,[1]; [12],0.376 ± 0.078 mL/g/min
same,Brain Concentration (corrected for drug retained in vascular volume),[1]; [13],1426.6 pmol/g
same,Kin,[1]; [13],0.463 mL/g/min
same,Brain Concentration (corrected for drug retained in vascular volume),[1]; [14],1074.9 pmol/g
same,Kin,[1]; [14],0.349 mL/g/min
same,Brain Concentration (corrected for drug retained in vascular volume),[1]; [15],969.7 pmol/g
same,Kin,[1]; [15],0.315 mL/g/min
same,Brain Concentration (corrected for drug retained in vascular volume),[1]; [16],1124.7 ± 135.5 pmol/g
same,Kin,[1]; [16],0.386 ± 0.047 mL/g/min
same,Brain Concentration (corrected for drug retained in vascular volume),[1]; [17],977.7 pmol/g
same,Kin,[1]; [17],0.336 mL/g/min
same,Brain Concentration (corrected for drug retained in vascular volume),[1]; [18],1244.5 pmol/g
same,Kin,[1]; [18],0.427 mL/g/min
same,Brain Concentration (corrected for drug retained in vascular volume),[1]; [19],1151.8 pmol/g
same,Kin,[1]; [19],0.395 mL/g/min
Lucifer Yellow,Papp,"[2]; Treatment 1: Compound B assayed with controls, Average ± STD",14.40 ± 0.37 ×10^−6 cm/s
same,Papp,"[2]; Treatment 1: Compound B assayed with controls, Rep 1",1.481e-05 cm/s
same,Papp,"[2]; Treatment 1: Compound B assayed with controls, Rep 2",1.411e-05 cm/s
same,Papp,"[2]; Treatment 1: Compound B assayed with controls, Rep 3",1.426e-05 cm/s
same,Papp,"[2]; Treatment 2: Compound B assayed with controls + MAO inhibitor Pargyline, Average ± STD",15.10 ± 0.11 ×10^−6 cm/s
same,Papp,"[2]; Treatment 2: Compound B assayed with controls + MAO inhibitor Pargyline, Rep 1",1.509e-05 cm/s
same,Papp,"[2]; Treatment 2: Compound B assayed with controls + MAO inhibitor Pargyline, Rep 2",1.5e-05 cm/s
same,Papp,"[2]; Treatment 2: Compound B assayed with controls + MAO inhibitor Pargyline, Rep 3",1.521e-05 cm/s
same,Papp,[2]; [20],14.82 ± 0.88 ×10^−6 cm/s
same,Papp,[2]; [21],1.561e-05 cm/s
same,Papp,[2]; [22],1.388e-05 cm/s
same,Papp,[2]; [23],1.499e-05 cm/s
same,Papp,[2]; [24],13.76 ± 0.46 ×10^−6 cm/s
same,Papp,[2]; [25],1.327e-05 cm/s
same,Papp,[2]; [26],1.382e-05 cm/s
same,Papp,[2]; [27],1.42e-05 cm/s
same,Papp,"[2]; Treatment 5: Compound A assayed with controls, Average ± STD",14.56 ± 1.33 ×10^−6 cm/s
same,Papp,"[2]; Treatment 5: Compound A assayed with controls, Rep 1",1.491e-05 cm/s
same,Papp,"[2]; Treatment 5: Compound A assayed with controls, Rep 2",1.309e-05 cm/s
same,Papp,"[2]; Treatment 5: Compound A assayed with controls, Rep 3",1.568e-05 cm/s
same,Papp,"[2]; Treatment 7: CYP2D6 substrate Bufuralol assayed with controls, Average ± STD",13.88 ± 0.56 ×10^−6 cm/s
same,Papp,"[2]; Treatment 7: CYP2D6 substrate Bufuralol assayed with controls, Rep 1",1.355e-05 cm/s
same,Papp,"[2]; Treatment 7: CYP2D6 substrate Bufuralol assayed with controls, Rep 2",1.357e-05 cm/s
same,Papp,"[2]; Treatment 7: CYP2D6 substrate Bufuralol assayed with controls, Rep 3",1.452e-05 cm/s
NCCc1ccccc1 [Phenylethylamine],Papp at 120 min,[3]; [20],18.94 ± 0.1 ×10⁻⁶ cm/s
same,Papp at 120 min,[3]; [21],18.8 ×10⁻⁶ cm/s
same,Papp at 120 min,[3]; [22],18.9 ×10⁻⁶ cm/s
same,Papp at 120 min,[3]; [23],19 ×10⁻⁶ cm/s
same,Papp at 120 min,[3]; [24],35.2 ± 0.98 ×10⁻⁶ cm/s
same,Papp at 120 min,[3]; [25],34.5 ×10⁻⁶ cm/s
same,Papp at 120 min,[3]; [26],36.3 ×10⁻⁶ cm/s
same,Papp at 120 min,[3]; [27],34.7 ×10⁻⁶ cm/s
same,Permeation (Papp) in the presence of the MAO inhibitor Pargyline compared to alone,[2],significant increased
